Test results reported in patent publication US10632127B2, “Targeted notch pathway inhibitors” (Hoffmann-La Roche Inc., priority 2015, dated 2020).
Where a name gives a salt, the structure may show the parent alone. Read-outs that look alike come from different tables or passages of the source. Each block holds one molecule with its values, some of them ahead of it.

Legend:
[1] = biological target: Notch signal transduction pathway; experiment: In vitro Notch signal transduction pathway activity assay (DR215/F2 luciferase reporter); format: cell-based, human; conditions: for IC50: Homo sapiens, 215/F2 reporter cell line, 19 h, mean of at least 3 experiments
Description: The compounds were dissolved in dimethyl sulfoxide (DMSO) at 10 mM stock solution, aliquoted and stored at −4° C. until use, then diluted in PBS or cell culture medium. In the experimental settings, controls containing increasing concentrations of DMSO, corresponding to the amount of DMSO of the diluted compounds were always included. For in vivo experiments, the compounds were dissolved in 0.9% NaCl, incubated 30 min at 40° C. and sonicated for 5 min.
The requirement of proteolytic activation of the prodrugs to inhibit Notch cleavage by the γ-secretase, was investigated using a reporter assay (Table 3). The DR215/F2 cell line expresses a reporter construct designed to monitor the activity of the Notch signal transduction pathway. The DR215/F2 cell line 39 carries two transgenes: the firefly luciferase reporter gene expressed under the control of the Gal4 promoter and the human Notch1 activator gene fused with the yeast Gal4 transcription factor. This assay confirmed that the prodrugs were able to inhibit γ-secretase and the activation of the Notch pathway. The DR215/F2 cell reporter assay was also used to determine the IC50 for blockade of the Notch pathway by all the compounds designed and prepared.
The values were determined using the 215/F2 reporter cell line for Notch activation by the γ-secretase. All values are the mean of at least 3 experiments.
The preparation and characterization of rat brain-derived EC219 endothelial cells have been described in Juillerat-Jeanneret, L. et al. In Vitro Cell. Dev. Biol. 1992, 28A, 537-543. These cells express high levels of APA and γ-GT activities and can be used for determining kinetics in living cells, and were chosen as APA- and γ-GT-positive representative cell models. EC219 cells were grown in DMEM medium containing 1 g/l glucose, 10% heat-inactivated fetal calf serum (FCS, EuroClone, UK) supplemented with 100 U/mL penicillin and 100 μg/mL streptomycin (P/S) on uncoated cell culture plastic ware. The HEK293 and HK2 human kidney cells are available from the ATCC (American Tissue Culture Collection, Manassas, Va., USA). HEK293 cells were grown on uncoated cell culture plastic ware in Iscove modified Dulbecco medium (IMDM, Life Technologies) containing 10% FCS and P/S. HK2 cells were grown on uncoated cell culture plastic ware in DMEM/F-12 GlutaMAX medium (Gibco) containing 5% FCS, P/S, 1% ITS (1.0 mg/ml bovine insulin, 0.55 mg/ml human transferrin and 0.5 μg/ml sodium selenite, Sigma-Aldrich) and 5 ng/ml hydrocortisone. The human HEK293-derived DR215/F2 embryonic kidney cell line, stably transfected with pFR Luc and APP-Notch Gal (plasmid DR215) as described in WO 2006/061136 A2 and Brockhaus, M. Neuroreport 1998 9, 1481-1486, were maintained using IMDM with 10% FCS supplemented with P/S and kept under double-selection with 150 μg/ml G-418 and 50 μg/ml hygromycin B on coated (1:100 Poly-L-lysine) cell culture plastic ware. In this assay, the Notch-Gal4 protein is bound to the cell membrane via its trans-membrane domain. The Notch intracellular domain is released by proteolytic cleavage mediated by the γ-secretase and moves to the cell nucleus where it activates the reporter luciferase gene transcript. Inhibition of γ-secretase thus decreases luciferase activity. Briefly, cultures were grown in 96-well microplates to 80% confluence; the cells were then washed in PBS and exposed to decreasing concentrations of the γ-secretase-inhibitor analogues in complete IMDM culture medium without red phenol at 37° C. for 19 h. Then 75 μl of supernatant from each well was removed and the luciferase activity was determined by adding 25 μl of Steady-Glo luciferase assay reagent (Promega).

[2] = Pharmacokinetic assessment in male Wistar rats (i.v.); format: in vivo, rat; conditions: for concentration at 0.25 h / concentration at 0.5 h: rat, intravenous
Description: For PK evaluation, the compounds were administered i.p to male C57BL/6 mice in suspension (gelatine/saline 7.5%/0.62% in water) using an administration volume of 4 mL/kg. Blood samples were collected in tubes containing EDTA, plasma was separated by centrifugation and stored at −80° C. Liver and kidney samples (˜100 mg aliquots) were homogenized in three volumes of water using Precellys tissue homogenization tubes (precellys.com). 25 μL of each tissue homogenate was further diluted with 25 μL blank plasma to produce the final tissue homogenate for extraction. All samples were analyzed using protein precipitation followed by LC-MS/MS analysis. Briefly, 50 μL plasma or final tissue homogenate were mixed with 50 μL 0.5M HClO4/acetonitrile 9/1 (containing 200 ng/mL internal standard bosentan). Samples were stirred and 300 μL water was added followed by centrifugation at 5600 rpm (4° C., 10 min). 10 μL supernatant was analyzed by LC/MS analysis. Calibration standards in plasma were prepared the same way. The LC column and conditions used were: Phenomenex, Polar RP, 4 μm, 50×2.1 mm at 0.4 mL/min flow rate with a 3 min gradient from 95% solvent A to 95% solvent B (Solvent A: Water/ACN/HCOOH, 90:10:0.1+10 mM NH4 formate; Solvent B: Water/ACN/HCOOH, 10:90:0.1+10 mM NH4 formate). Mass spectrometric conditions were: Thermo TSQ Vantage with positive heated electrospray ionization in MS/MS mode. Compounds mass transitions monitored were m/z 320.7 to 119.9. PK parameters for all studies were calculated using Phoenix WinNonlin Software.
We next determined the stability, tissue distribution and cleavage rate in plasma, liver and kidney of the designed prodrugs in male Wistar rats. In the in vivo screen, the kinetics and distribution of the prodrugs Ac-γ-Glu-SecrI (13a) and Ac-γ-Glu-O-SecrI (13c) were compared with the active γ-secretase inhibitor SecrI (8). After i.v. administration in male Wistar rats, the disappearance of the prodrugs and the formation of the active amine-SecrI (11a), amine-O-SecrI (11b) and SecrI (8) were compared in plasma, liver and kidney (Table 7A-C). First, we determined the pharmacokinetics (PK) behavior of SecrI (8) following i.v. administration (Table 7A). […] Liver and kidney exposure were much higher, with same exposure in liver and kidney. […] The selectivity towards kidney stayed constant over time. The carbonate analogue Ac-γ-Glu-O-SecrI (13c) prodrug was converted to a lower extent than the Ac-γ-Glu-SecrI (13a) to amine-O-SecrI (11b) but more to the linker free γ-secretase inhibitor 8 (Table 7C).
Plasma and tissue concentrations of administered compound (A-C) and formed amine-SecrI (11a), amine-O-SecrI (11b) or SecrI (8) (B-C) were determined following i.v. administration in rats (no standard deviation given due to sparse sampling; n≤3 rats per time point). Numbers in parentheses represent relative amounts with the exposure of kidney arbitrarily set at each time point to 100%. […] BQL=below quantifiable limit.

IC50 for blockade of the Notch pathway, range in words ([1]; DR215/F2 cell reporter assay): low nanomolar range | IC50 [1]: 0.5 nM | Plasma concentration of formed 11b ([2]; 13c 1.5 mg/kg i.v., 0.25 h): BQL | Plasma concentration of formed 11b ([2]; 13c 1.5 mg/kg i.v., 0.5 h): BQL | Plasma concentration of formed 11b ([2]; 13c 1.5 mg/kg i.v., 4 h): BQL | Formed 11b in kidney, relative amount (arbitrarily set to 100%) ([2]; 13c 1.5 mg/kg i.v., 7 h): (100) % | Plasma concentration of formed 11b ([2]; 13c 1.5 mg/kg i.v., 7 h): BQL | kidney selectivity, in words ([2]; formed after 13c i.v.): very good kidney selectivity
SMILES: C[C@H]1Oc2ccc(F)cc2N(CCOC(=O)OCCN)C(=O)[C@H]1NC(=O)[C@@](C)(O)C(=O)NCC(F)(F)C(F)(F)F [Compound 11b, 2-Aminoethyl 2-((2R,3S)-7-fluoro-3-((S)-2-hydroxy-2-methyl-3-oxo-3-(2,2,3,3,3-pentafluoropropylamino)propanamido)-2-methyl-4-oxo-3,4-dihydrobenzo[b][1,4]oxazepin-5(2H)-yl)ethyl carbonate hydrochloride]

IC50 [1]: 170 nM | Kidney concentration of 13c ([2]; 13c 1.5 mg/kg i.v., 4 h): BQL | Liver concentration of 13c ([2]; 13c 1.5 mg/kg i.v., 4 h): BQL | Plasma concentration of 13c ([2]; 13c 1.5 mg/kg i.v., 4 h): BQL | Kidney concentration of 13c ([2]; 13c 1.5 mg/kg i.v., 7 h): BQL | Liver concentration of 13c ([2]; 13c 1.5 mg/kg i.v., 7 h): BQL | Plasma concentration of 13c ([2]; 13c 1.5 mg/kg i.v., 7 h): BQL | conversion to amine-O-SecrI (11b), in words ([2]; 13c i.v., compared with 13a): lower extent | conversion to the linker-free γ-secretase inhibitor 8, in words ([2]; i.v.): significantly converted | concentration at 0.25 h ([2]; kidney, 13c 1.5 mg/kg i.v., 0.25 h, read-out: Kidney concentration of 13c): 20.5 ng/g | concentration at 0.5 h ([2]; kidney, 13c 1.5 mg/kg i.v., 0.5 h, read-out: Kidney concentration of 13c): 3.8 ng/g | concentration at 0.25 h ([2]; liver, 13c 1.5 mg/kg i.v., 0.25 h, read-out: Liver concentration of 13c): 196 ng/g | concentration at 0.5 h ([2]; liver, 13c 1.5 mg/kg i.v., 0.5 h, read-out: Liver concentration of 13c): 32.3 ng/g | concentration at 0.25 h ([2]; plasma, 13c 1.5 mg/kg i.v., 0.25 h, read-out: Plasma concentration of 13c): 53 ng/mL | concentration at 0.5 h ([2]; plasma, 13c 1.5 mg/kg i.v., 0.5 h, read-out: Plasma concentration of 13c): 4.6 ng/mL
SMILES: CC(=O)N[C@@H](CCC(=O)NCCOC(=O)OCCN1C(=O)[C@@H](NC(=O)[C@@](C)(O)C(=O)NCC(F)(F)C(F)(F)F)[C@@H](C)Oc2ccc(F)cc21)C(=O)O [Compound 13c, (S)-2-acetamido-5-(2-((2-((2R,3S)-7-fluoro-3-((S)-2-hydroxy-2-methyl-3-oxo-3-(2,2,3,3,3-pentafluoropropylamino)propanamido)-2-methyl-4-oxo-3,4-dihydrobenzo[b][1,4]oxazepin-5(2H)-yl)ethoxy)carbonyloxy)ethylamino)-5-oxopentanoic acid]
